We go through five compounds from patent US20230241226A1, “COMPOUNDS FOR TARGETED DEGRADATION OF CARRIER PROTEINS AND USES THEREOF” (CeMM - Forschungszentrum für Molekulare Medizin GmbH, priority 2019, published 2023).

Residues, ends and D or L forms follow the SMILES beside them. *: point of attachment. Cbz = O=C(OCc1ccccc1)*

Assay [1] concerns the target T1, SLC9A1 (Homo sapiens, UniProt P19634).
T1 construct: endogenous in cells; host or cells: HAP1, KBM7 (WT and CRBN knockout)
Put plainly: Degradation of endogenous SLC9A1 (immunoblot). Format: cell-based. The conditions noted are these: WT KBM7; 0.5 µM d9A1-2 16 hours; bortezomib 0.25 µM, MG-132 1 µM, MLN4924 1 µM, pomalidomide 1 µM, bafilomycin A1 10 µM. On the procedure:
(B) HAP1 and KBM7 cells were treated with different concentrations of d9A1-2.
(C)Both WT and CRBN knockout KBM7 cell lines were treated with 1 µM d9A1-2 for 16 hours.
(D) Chemical “rescue” of d9A1-2 driven degradation. WT KBM7 cell lines were treated with 0.5 µM d9A1-2 for 16 hours. These cells were also treated with bortezomib (bort. 0.25 µM), MG-132 (MG, 1 µM), MLN4924 (MLN,1 µM), pomalidomide (poma., 1 µM), or bafilomycin A1 (bafi., 10 µM). All molecules, apart from bafilomycin, could rescue SLC9A1 from degradation.
(B) HAP1 cells were treated with a dose curve of the warhead, d9A1-1, d9A1-2, d9A1-3, d9A1-4, for 24 hours.
(C) KBM7 cells were treated with varying concentrations of d9A1-2.
HEK293T, LS180 were obtained from ATCC (Manassas, VA, USA), HAP1 WT, HAP1 -/-SLC38A2 (HZGHC001975c003), HAP1 -/-SLC38A9 (HZGHC000777c011) were obtained from Horizon Genomics. Other cell lines utilized here: CAKI (a gift of Georg Winter’s lab), SW620, SW480 (both a gift from Walter Berger’s lab, Medical University Vienna), LOVO, HCT15 (both a gift from Chris Gasche), KBM7 (a gift from Thijn Brummelkamp’s lab), KBM7 -/- CRBN was described in Mayor-Ruiz et al. Cells were cultured, according to the ATCC recommendation in DMEM, RPMI or IMDM medium (Gibco) supplemented with 10% (v/v) FBS and antibiotics (100 U/ml penicillin and […] streptomycin). Knock-in single cell clones of dTAG-HA SLC38A2 HAP1 cell line were generated as previously described. For starvation, culture media was replaced with media without amino acids or FBS.
(§1) For immunoblotting, whole cell extracts were prepared using RIPA lysis buffer (25 mM Tris/HCl pH 7.6, 150 mM NaCl, 1% NP-40, 1% sodium deoxycholate, 0.1% SDS, EDTA-free protease inhibitor (Roche) and phosphatase inhibitors 2+3 (Sigma- Aldrich)). Cell extracts were incubated for 15 min on ice in 50 µL RIPA buffer. Lysates were cleared by centrifugation (20,000 g, 10 min, 4° C.). Protein extracts were quantified and normalized using the BCA assay (Thermo Scientific). Where indicated, cleared lysates where treated with the enzyme PNGase (NEB) to deglycosylate the proteins. Lämmli Sample Buffer 4x was added to protein extract samples without boiling. Cell lysates were run on SDS-polyacrylamide gel in tris-glycine running buffer and transferred to nitrocellulose membranes Amersham Protran 0.45 µm (GE Healthcare), according to standard methods. The membranes were incubated with the antibodies indicated below and visualized with horseradish peroxidase-conjugated secondary antibodies (described below) using the ECL Western blotting system (Thermo Scientific). The following antibodies were used: GAPDH (Santa Cruz, sc-365062), Actin (Cyoskeleton Inc., #AAN01), HA (Covance, cat #MMS-101R), HA (Cell Signaling, #3724), HA7-HRP (Sigma, H6533), HA (Roche, #11867423001), SLC9A1 (Santa Cruz, sc-136239), SLC2A1 (Cell Signaling, #12939), SLC38A1 (Cell Signaling, #36057). Secondary antibody for imaging goat anti-Rat IgG Alexa Fluor 488 (ThermoFisher, A11006). The following secondary antibodies were used for immunoblotting: goat anti-mouse HRP (115-035-003, Jackson ImmunoResearch) and goat anti-rabbit HRP (111-035-003, Jackson ImmunoResearch).
MG132, Bortezomib, Pomalidomide were obtained from Selleckchem. MLN4924 was obtained from MedchemExpress. Bafilomycin was obtained from Enzo Life Sciences. dTAG13 was a generous gift from the Nathanael Gray laboratory, Dana Farber Cancer Institute. The d9A1 degrader series (warhead, d9A1-1 to d9A1-4) was synthesized by Wuxi AppTec. All chemicals were dissolved in DMSO (Sigma-Aldrich) and utilized at the concertation described in respective figures.

Assay [2] deals with dTAG-HA SLCs. Put plainly: dTAG-driven SLC degradation, statements across SLCs (temporal control, chemical rescue). Format: cell-based, human. The conditions noted are these: HAP1; 0.5 µM dTAG7 12 or 18 hours; MLN4924 1 µM, pomalidomide 10 µM, bortezomib 1 µM, MG-132 1 µM, bafilomycin A1 2.5 µM. On the procedure: (D)Chemical “rescue” of dTAG-driven degradation of SLCs. HAP1 cell lines expressing dTAG-HA SLC1A5 or dTAG-HA SLC38A9 were treated with 0.5 µM dTAG7 for 12 or 18 hours, respectively. These cells were also treated with chloroquine (CQ, 50 µM), bortezomib (bort., 1 µM), MG-132 (MG, 1 µM), MLN4924 (MLN, 1 µM), pomalidomide (poma., 10 µM), or bafilomycin A1 (bafi., 2.5 µM). SLC degradation was rescued by inhibiting CRL activity or the proteasome, but not by inhibiting the lysosome machinery.
Western blotting with antibodies against the HA-tag and the total protein mirrored the observed pattern.
(D) Chemical “rescue” of dTAG driven degradation. HAP1 cell lines expressing dTAGHA SLC2A3, 39A7, […], and MTCH2 were treated with 0.5 µM dTAG7 for 12 hours. A cell line expressing dTAG-HA SLC38A2 was treated with 0.5 µM dTAG7 for 18 hours. These cells were treated with MLN4924 (MLN, 1 µM), pomalidomide (poma., 10 µM), or bafilomycin A1 (bafi., 2.5 µM) to monitor the inhibition of degradation.
as §1
SLCs were ectopically expressed as fusions to a mutated FKBP domain, also known as the dTAG system. In brief, a dTAGed protein is amenable to degradation by specific chimeric degrader molecules (e.g. dTAG7/dTAG13) that simultaneously bind to the dTAG and the CRL4CRBN E3 ligase, inducing molecular proximity and ensuing degradation by the proteasome. Given that SLCs were expressed in all cellular compartments, the amenability of differentially located SLCs to targeted proteolysis was tested (FIG. 1A, upper graph). Each of the tested SLCs was stably expressed in HAP1 cells, and subcellular localization was assessed by immunofluorescence microscopy (FIG. 1B). In detail, SLCs located at the cell surface (SLC1A5, SLC38A1, SLC2A1, SLC2A3, SLC16A1, SLC4A4, SLC7A3), cell surface and vesicles (SLC38A2), lysosome (SLC38A9), Golgi (SLC35B2, SLC33A1), mitochondria (SLC25A26, SLC25A1, and MTCH2) and endoplasmic reticulum (SLC39A7, SLC30A9) were assayed. Cellular treatment with a specific degrader molecule (dTAG7 or dTAG13) led to identification of SLCs expressed at cell surface, endoplasmic reticulum and lysosome that were amenable to targeted degradation (FIGS. 1C, 5A). The dTAG could be placed on either N- or C-terminus of the SLC, if both face the cytoplasm (FIG. 5B), as exemplified by SLC2A3. […]

T1 sequence (P19634 whole entry): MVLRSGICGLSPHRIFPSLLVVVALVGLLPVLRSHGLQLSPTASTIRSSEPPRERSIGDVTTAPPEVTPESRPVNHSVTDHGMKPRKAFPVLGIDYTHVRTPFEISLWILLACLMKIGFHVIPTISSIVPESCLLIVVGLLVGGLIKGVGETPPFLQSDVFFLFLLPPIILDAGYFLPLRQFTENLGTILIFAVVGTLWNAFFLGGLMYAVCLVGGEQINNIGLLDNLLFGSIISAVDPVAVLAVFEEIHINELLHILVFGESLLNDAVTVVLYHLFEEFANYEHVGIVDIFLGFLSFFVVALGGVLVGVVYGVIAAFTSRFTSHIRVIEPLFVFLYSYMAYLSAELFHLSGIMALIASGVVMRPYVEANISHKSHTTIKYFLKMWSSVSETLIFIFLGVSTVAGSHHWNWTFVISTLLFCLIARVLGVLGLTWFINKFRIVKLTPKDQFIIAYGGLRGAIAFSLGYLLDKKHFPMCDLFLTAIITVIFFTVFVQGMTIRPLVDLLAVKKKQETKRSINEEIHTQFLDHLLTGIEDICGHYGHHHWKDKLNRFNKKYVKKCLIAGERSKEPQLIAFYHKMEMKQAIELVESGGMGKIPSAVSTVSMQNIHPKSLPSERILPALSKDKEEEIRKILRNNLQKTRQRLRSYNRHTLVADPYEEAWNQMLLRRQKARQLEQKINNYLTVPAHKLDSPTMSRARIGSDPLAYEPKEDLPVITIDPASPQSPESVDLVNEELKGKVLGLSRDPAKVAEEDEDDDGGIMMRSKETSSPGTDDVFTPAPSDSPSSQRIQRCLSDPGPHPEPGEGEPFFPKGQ

As for `CC(C)C[C@@H](C=O)NC(=O)[C@H](CC(C)C)NC(=O)[C@H](CC(C)C)NC(=O)OCc1ccccc1` [MG132] (Cbz-Leu-Leu-Leu-aldehyde), the “effect of co-treatment on d9A1-2 driven SLC9A1 degradation (chemical rescue)” value in assay [1] was “rescued SLCs degradation”. In addition, in assay [2], the “effect of co-treatment on dTAG7 mediated SLC degradation (chemical rescue)” value is “rescued SLCs degradation”.

Consider `NS(=O)(=O)OC[C@@H]1C[C@@H](n2ccc3c(N[C@H]4CCc5ccccc54)ncnc32)C[C@@H]1O` [MLN4924], for which the “effect of co-treatment on d9A1-2 driven SLC9A1 degradation (chemical rescue)” value in assay [1] is on record as “abrogated”. Also, the “effect of co-treatment on dTAG7 mediated SLC degradation (chemical rescue)” value in assay [2] is recorded as “blocked”.

Take `CO/C1=C\C(C)=C\[C@@H](C)[C@@H](O)[C@@H](C)C/C(C)=C/C=C/[C@H](OC)[C@@H]([C@@H](C)[C@@H](O)[C@H](C)[C@@]2(O)C[C@@H](O)[C@H](C)[C@@H](C(C)C)O2)OC1=O` [bafilomycin A1]: the “effect of co-treatment on dTAG7 mediated SLC degradation (chemical rescue)” value in assay [2] was “degradation appeared unaffected”.

On to `CC(C)C[C@H](NC(=O)[C@H](Cc1ccccc1)NC(=O)c1cnccn1)B(O)O` [bortezomib], for which, in assay [1], the “effect of co-treatment on d9A1-2 driven SLC9A1 degradation (chemical rescue)” value is “rescued SLCs degradation”. For the same compound, the “effect of co-treatment on dTAG7 mediated SLC degradation (chemical rescue)” value in assay [2] is recorded as “rescued SLCs degradation”.

As to `Nc1cccc2c1C(=O)N(C1CCC(=O)NC1=O)C2=O` (stereo not drawn) [pomalidomide], in assay [1], the “effect of co-treatment on d9A1-2 driven SLC9A1 degradation (chemical rescue)” value is on record as “blocked d9A1-2-induced degradation of SLC9A1”. Besides, the “effect of co-treatment on dTAG7 mediated SLC degradation (chemical rescue)” value in assay [2] was “prevented measurable SLC degradation”.
